According to PMC11541474, “Toward New Therapeutics for Visceral Leishmaniasis: Efficacy and Mechanism of Action of Amides Inspired by Gibbilimbol B” (ACS Omega, 2024):

Key:
Format in all cases: cell-based, Leishmania (L.) infantum
[1] = system: L. (L.) infantum promastigotes; assay: mitochondrial membrane electric potential, JC-1 flow cytometry; conditions: 9 at 141.5 μM, 10 at 110.1 μM, 4 h exposure
Source text: Mitochondria perform several vital functions and play an essential role in maintaining cellular balance, thus making them a potential target for new drugs against Leishmania spp. Mitochondria are composed of two interconnected membranes and play crucial roles in energy production (ATP), calcium regulation, and the induction of programmed cell death among other processes.[22],[23] Prolonged changes in mitochondrial membrane potential can lead to irreversible cellular damage.[24] The mitochondrial membrane potential of L. (L.) infantum promastigotes (Figure 6) was evaluated by flow cytometry using JC-1.[25] […] The compound carbonyl cyanide m-chlorophenyl […] (CCCP) was used to induce maximum depolarization (positive control), whereas untreated parasites served as a negative control. […] Both alterations may have contributed to the observed mitochondrial dysfunction and might explain the reduction in ROS levels after treatment that was observed. […] JC-1 dye fluorescence was measured by flow cytometry (excitation and emission at 488 and 530 nm, respectively) after incubation. […] Fluorescence is reported as the quotient of channels BL2/BL1.**: p = 0.0001. […] Fluorescence was measured with excitation and emission filters at 488 and 530 nm (BL-1)/574 nm (BL-2), respectively. […]

[2] = system: L. (L.) infantum promastigotes; assay: acidocalcisome alterations, acridine orange; conditions: 9 at 141.5 μM (20 min), 10 at 110.1 μM (significant from 60 min onward)
Source text: Acidocalcisomes are intracellular organelles that are characterized by acidity and high calcium concentrations due to the proton and calcium pumps.[33] In trypanosomatids, these organelles are rich in short-chain polyphosphates and occupy a small proportion (1 to 2%) of each cell’s volume.[34] In these parasites, the acidocalcisomes are responsible for capturing and storing calcium in large quantities, which is essential for cellular functioning.[35] In our study, we investigated possible changes resulting from treatment with compounds in acidocalcisomes, especially concerning intracellular calcium. Acridine orange was used as a fluorescent probe to evaluate changes in the acidocalcisomes of L. (L.) infantum promastigotes. Alkalinization of these organelles results in the release of the probe, altering the fluorescence.[36] […] These effects were compared with those of the positive (nigericin) and negative (untreated parasites) controls. Figure 8 Acidocalcisome alkalization in L. (L.) infantum treated with compounds 9 (141.5 μM - A) or 10 (110.1 μM - B). […] Fluorescence is represented as a percentage of the fluorescence in the positive control with nigericin at 20 min (100%). ***p = 0.003, **p = 0.0021, **p = 0.05. […] The fluorescence was measured in a spectrofluorimeter with excitation an emission at […], respectively. […]

[3] = system: L. (L.) infantum promastigotes; assay: parasite protein spectral profiling (MALDI-TOF/MS); conditions: 9 at 141.5 μM, 10 at 110.1 μM, 24 h incubation
Description: Finally, the protein variations of Leishmania after treatment with compounds 9 and 10 were investigated using MALDI-TOF/MS analysis.[37],[38] […] Panel I. Promastigotes were incubated with compound 9 (141.5 μM), compound 10 (110.1 μM). Miltefosine was used as positive control whereas untreated parasites were used as a negative control. The peaks observed at m/z 6,153 and m/z 7,187 (blue) allow the identification of the Leishmania subgenus. Increases in peak intensity resulting from the incubation of promastigotes with compound 9 or 10 can be observed at m/z 3,081, 5,542, and 11,079 (red). Panel II. A schematic gel showing mass spectra in the m/z 2,000–20,000 range (B, D, F, H); raw spectra are shown in blue (A, C, E, G), whereas spectra generated after normalization, smoothing, and baseline subtraction are shown in red. (A) and (B), results from untreated promastigotes (negative control); (C) and (D); results from promastigotes incubated with compound 9; (E) and (F), results from promastigotes incubated with compound 10; and (G) and (H) results from promastigotes incubated with miltefosine (standard treatment drug and positive control). MALDI-TOF/MS was used to investigate protein changes in stationary-phase L. (L.) infantum promastigotes that were induced by treatment with compound 9 (141.5 μM), compound 10 (110.1 μM), or the standard drug miltefosine. […]

Row | Structure (SMILES) | mitochondrial membrane potential (JC-1) compared with untreated promastigotes [1] | effect on acidocalcisomes (acridine orange fluorescence) [2] | MALDI-TOF/MS protein spectral profile compared with untreated parasites [3]
1 | CCCCC(CC)CNC(=O)c1ccc([N+](=O)[O-])cc1 (stereo not drawn) [Compound 10, N-(2-Ethylhexyl)-4-nitrobenzamide] | not statistically significant | progressive and continuous acidification of these organelles | increased the intensity of the spectral peaks
2 | CCCCC(CC)CNC(=O)c1ccc(Cl)cc1 (stereo not drawn) [Compound 9, N-(2-Ethylhexyl)-4-chlorobenzamide] | significant depolarization of the mitochondrial membrane | alkalinization of the acidocalcisomes | increased the intensity of the spectral peaks
